≈ marks a conversion by molar mass, not a printed value. Read-outs that look alike come from different tables or passages of the source.
Assays:
MtbAPSR [1] = biological target: T1, MtbAPSR (Mycobacterium tuberculosis, UniProt P9WIK3); test: biochemical; set-up: species or system M. tuberculosis
LUM assay counterscreen = assay type: biochemical; details: LOPAC pilot screen, dose-response
[2] = test system: Non replicating WT Mtb H37Rv; test: Bactericidal activity against nonreplicating; assay type: cell-based; details: Mycobacterium tuberculosis
[3] = test system: Non replicating Msm mc2:155 ΔcysH; assay type: cell-based, Mycobacterium smegmatis; details: 2 mM methionine; Alamar Blue assay
VERO cells = test: Cytotoxicity in VERO cells; assay type: cell-based
MtbAPSR [4] = biological target: T1, MtbAPSR; test: biochemical; assay type: binding, M. tuberculosis
[5] = HRP-PR H2O2 detection counterscreen for redox-cycling compounds; assay type: biochemical; details: 0.8 mM DTT
RecA = details: qRT-PCR, normalized to housekeeping gene SigA

T1 sequence (P9WIK3 whole entry): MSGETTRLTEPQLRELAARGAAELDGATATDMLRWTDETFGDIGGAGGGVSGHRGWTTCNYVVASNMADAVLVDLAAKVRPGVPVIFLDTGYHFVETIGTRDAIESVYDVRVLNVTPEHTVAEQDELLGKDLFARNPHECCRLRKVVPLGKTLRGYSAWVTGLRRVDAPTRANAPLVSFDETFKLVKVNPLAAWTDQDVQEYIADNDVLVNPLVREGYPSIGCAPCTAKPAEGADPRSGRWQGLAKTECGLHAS

## CSc1nc(N)c2ncn([C@@H]3O[C@H](COP(=O)(O)OP(=O)(O)O)[C@@H](O)[C@H]3O)c2n1.[Na].[Na].[Na] [2-Thiomethyladenoside diphosphate trisodium, reference compound]
MtbAPSR [1]
  activity in LUM assay: active
LUM assay counterscreen
  activity in LUM counterscreen: active

## Cc1c2ccncc2c(C)c2c1[nH]c1ccccc12 [Compound 5, ellipticine]
MtbAPSR [1]; LUM Assay, IC50, dose-response LUM assay, Table 1
  IC50: 4.2 µM
MtbAPSR [1]; apparent IC50 in LUM assay, LOPAC pilot screen hit, dose-response, 384-well
  IC50: 11.1 µM
LUM assay counterscreen
  activity in LUM counterscreen: inactive
[2]; read-out: Non replicating WT Mtb H37Rv, (+) Met
  MBC: 12.5 µM (≈ 3.08 µg/mL)
[2]; read-out: Non replicating WT Mtb H37Rv, (−) Met
  MBC: 12.5 µM (≈ 3.08 µg/mL)
[3]
  Non replicating Msm mc2:155; MBC, ΔcysH: >100 µM
VERO cells
  lethal concentration (LC90) in VERO cells: 63 µM
VERO cells; VERO LC90 vs MBC
  cytotoxicity fold lower compared to bactericidal activity against nonreplicating Mtb: ~ 5 fold
MtbAPSR [4]
  Kd: 12 µM

## O=C1C(SCCO)=C(SCCO)C(=O)c2ccccc21 [NSC 95397]
[5]
  generation of H2O2 in HRP-PR assay: showed generation of H2O2

## CO[C@@]12[C@H](COC(N)=O)C3=C(C(=O)C(C)=C(N)C3=O)N1C[C@@H]1N[C@@H]12 [mitomycin C]
RecA
  upregulation of RecA: significant upregulation

## Cl.N[C@@H](CCl)C(=O)O [β-Chloro-L-alanine hydrochloride, reference compound]
MtbAPSR [1]; LOPAC pilot screen, dose-response
  activity in LUM assay: no activity
LUM assay counterscreen
  activity in LUM counterscreen: no activity

Source: PMC4729198 (ACS chemical biology, 2015)
